The values below come from US11352350B2, “IRAK degraders and uses thereof” (Kymera Therapeutics, Inc., priority 2018, dated 2022).

In test [1] the target is T1, IRAK4 (Homo sapiens (Human), UniProt Q9NWZ3). The test is described as follows: hPBMC IRAK4 degradation flow assay. Format: cell-based. The settings on record: hPBMC monocyte. The protocol: hPBMC IRAK4 degradation flow assay. Frozen PBMCs were thawed into RPMI with 10% FBS and allowed to recover. On the same day as thawed, PBMCs were plated in 96 well plate, 90 uL per well. Compound plates were prepared and a 10 point, 5-fold dilution was performed with a final DMSO concentration of 0.1%. Compound 10 μL per well was added, sealed and incubated at 37° C., 5% C02 for 20 hours (for 4 hour treatment, compounds were prepared and added the following day). […] Cells were spun down and washed two times with PBS/0.5% BSA, aspirated to pellet and placed into −80° C. freezer until further processing for flow. On the flow run day, PBMC plates were thawed and samples were transferred to PCR plates. The pre-perm staining cocktail (CD3 Ax488/CD8 BUV805/CD14 BUV395/CD16/56 BV711/CD19 BV785) was added to samples and incubated for 30 minutes at room temperature. Samples were washed two times and permeabilized with methanol for 10 minutes at 4° C. […] Samples were washed two times with PBS/BSA and run on a BD LSRFortessa. Mononuclear cells are gated by SSCH/FSCH and single cells. Monocytes are then gated through CD14 positive gate and lymphocytes are gated through CD14 negative gate. To determine absolute DC50s and max degradation values, MFI values were normalized to DMSO max and 20 hour 10 μM min control. Twenty hour dose curves were calculated using a 4 parameter logistic regression curve fit, no constraints (Top doses were removed if hook effects were observed and the bottom was constrained to 0).

For test [2], the system named is OCI-LY10. The test is described as follows: CTG Cell Viability Assay - OCI-LY10. The format is cell-based, human. The note with it: Homo sapiens, OCI-Ly10, 96 h, OCI-LY10, 4 days; read-out: CTG Cell Viability Assay - OCI-LY10: Average external-IC50. In short, it runs like this: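 Viability read by CellTiter-Glo luminescence after 4 days at 37° C under 5% CO2 with compound (top 10 μM final, 1:3 steps, 9 doses, DMSO 0.2%). Three-parameter logistic fit gave IC50.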

Test [3] deals with T1, IRAK4. The experiment in a line: IRAK4 MSD degradation in OCI-LY10. Format: cell-based. In short, it runs like this: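 Remaining IRAK4 quantified by electrochemiluminescent MSD sandwich assay with two anti-IRAK4 antibodies. Compounds were dosed as 8 concentrations in 1:3 steps from a 1 to 10 μM final top on OCI-LY10 cells, incubated 4 to 24 h at 37° C. under 5% CO2. DC50 fitted with a three-parameter logistic curve.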

The mark [4] stands for this setting: 20 hr, flow assay, read-out: IRAK4 degradation in hPBMC monocyte at 20 hr: Average external Abs DC50.
Setting [5] is: OCI-LY10, 4 hrs, read-out: IRAK4 MSD degradation in OCI-LY10 at 4 hrs: DC50.
[6] abbreviates: OCI-LY10, 24 hrs, read-out: IRAK4 MSD degradation in OCI-LY10 at 24 hrs: DC50.
The mark [7] stands for this setting: 20 hrs, read-out: IRAK4 degradation in hPBMC monocyte: DC50.

T1 sequence (Q9NWZ3 whole entry): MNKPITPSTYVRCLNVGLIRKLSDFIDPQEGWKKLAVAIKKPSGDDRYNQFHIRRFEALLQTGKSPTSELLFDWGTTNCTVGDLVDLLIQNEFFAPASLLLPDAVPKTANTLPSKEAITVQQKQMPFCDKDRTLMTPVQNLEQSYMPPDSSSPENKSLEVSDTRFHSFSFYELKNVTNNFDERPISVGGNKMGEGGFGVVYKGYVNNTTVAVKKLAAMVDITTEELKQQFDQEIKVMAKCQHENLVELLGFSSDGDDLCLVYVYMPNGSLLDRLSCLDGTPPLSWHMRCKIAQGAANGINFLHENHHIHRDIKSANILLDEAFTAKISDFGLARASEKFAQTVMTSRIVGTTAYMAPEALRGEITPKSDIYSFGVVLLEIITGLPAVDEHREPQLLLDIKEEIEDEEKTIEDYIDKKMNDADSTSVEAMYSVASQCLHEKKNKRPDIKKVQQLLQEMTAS

For `Cn1c(=O)n(C2CCC(=O)NC2=O)c2cccc(C(=O)N3CCC(OC[C@H]4CC[C@H](n5cc(NC(=O)c6cnn7ccc(N8C[C@H]9C[C@@H]8CO9)nc67)c(C(F)F)n5)CC4)CC3)c21` (some centres unmarked) [I-427], the DC50 in test [1] (setting [4]) is 0.1 to 1 µM.
Turning to `Cn1c(=O)n(C2CCC(=O)NC2=O)c2cccc(CN3CC4(CCN(C(=O)[C@H]5CC[C@H](n6cc(NC(=O)c7cnn8ccc(N9C[C@H]%10C[C@@H]9CO%10)nc78)c(C(F)F)n6)CC5)CC4)C3)c21` (some centres unmarked) [I-429], the DC50 in test [1] (setting [4]) is under 0.01 µM.
Still for that read-out and setting: the result for `Cn1c(=O)n(C2CCC(=O)NC2=O)c2cccc(CCCN3CCC4(CC3)CCN(C(=O)C3CCC(n5cc(NC(=O)c6cnn7ccc(N8C[C@H]9C[C@@H]8CO9)nc67)c(C(F)F)n5)CC3)CC4)c21` (some centres unmarked) [I-435] reads under 0.01 µM; that for `Cn1c(=O)n(C2CCC(=O)NC2=O)c2cccc(CCCCC3CCN(Cc4ccc(-n5cc(NC(=O)c6cnn7ccc(N8C[C@H]9C[C@@H]8CO9)nc67)c(C(F)F)n5)cc4)CC3)c21` (some centres unmarked) [I-436], 0.1 to 1 µM.
For `O=C1CCC(N2C(=O)c3cccc(NCC4CC5(CCN(Cc6ccc(-n7cc(NC(=O)c8cnn9ccc(N%10C[C@H]%11C[C@@H]%10CO%11)nc89)c(C(F)F)n7)cc6)CC5)C4)c3C2=O)C(=O)N1` (some centres unmarked) [I-462], the IC50 in test [2] was under 0.05 µM. For the same compound, the results for the DC50 in test [3] (setting [5]) and in test [3] (setting [6]) were 0.1 to 1 µM and over 1 µM, respectively.
For `CN(C[C@H]1CC[C@H](n2cc(NC(=O)c3cnn4ccc(N5C[C@H]6C[C@@H]5CO6)nc34)c(C(F)F)n2)CC1)[C@H]1CC[C@H](Nc2cccc3c2C(=O)N(C2CCC(=O)NC2=O)C3=O)CC1` (some centres unmarked) [I-463], in that order: 0.1 to 0.5 µM, 0.01 to 0.1 µM and under 0.01 µM.
Turning to `Cn1c(=O)n(C2CCC(=O)NC2=O)c2cccc(CCCOC3CCN(C[C@H]4CC[C@H](n5ncc(NC(=O)c6cnn7ccc(N8CCOCC8)nc67)c5C(F)F)CC4)CC3)c21` (some centres unmarked) [I-468], the DC50 in test [1] (setting [7]) and in test [3] (setting [5]) was 0.1 to 1 µM in each case.
Take `O=C1CCC(N2C(=O)c3cccc(NC[C@H]4CC[C@H](OC5CCN(C[C@H]6CC[C@H](n7cc(NC(=O)c8cnn9ccc(N%10CCOCC%10)nc89)c(C(F)F)n7)CC6)CC5)CC4)c3C2=O)C(=O)N1` (some centres unmarked) [I-473]: the IC50 in test [2] was under 0.05 µM. The DC50 in test [3] (setting [5]) was 0.01 to 0.1 µM; in test [3] (setting [6]), under 0.01 µM.
Regarding `O=C1CCC(N2C(=O)c3cccc(NCCOCCCN4CCN(c5ncc(-n6cc(NC(=O)c7cnn8ccc(N9C[C@H]%10C[C@@H]9CO%10)nc78)c(C(F)F)n6)cn5)CC4)c3C2=O)C(=O)N1` (some centres unmarked) [I-474], the IC50 in test [2] is under 0.05 µM. Also, the DC50 fell in the range of 0.1 to 1 µM in test [3] (setting [5]) and 0.01 to 0.1 µM in test [3] (setting [6]).
For `CN(CCCN1CCO[C@H](CNc2cccc3c2C(=O)N(C2CCC(=O)NC2=O)C3=O)C1)C[C@H]1CC[C@H](n2cc(NC(=O)c3cnn4ccc(N5C[C@H]6C[C@@H]5CO6)nc34)c(C(F)F)n2)CC1` (some centres unmarked) [I-475], in that order: under 0.05 µM, 0.01 to 0.1 µM and under 0.01 µM.
Regarding `CN(Cc1ccc(-n2cc(NC(=O)c3cnn4ccc(N5CCOCC5)nc34)c(C(F)F)n2)cc1)[C@H]1CC[C@H](Nc2cccc3c2C(=O)N(C2CCC(=O)NC2=O)C3=O)CC1` (some centres unmarked) [I-476], the IC50 in test [2] was over 1 µM. For the same compound, the DC50 in test [3] (setting [5]) and in test [3] (setting [6]) was 0.01 to 0.1 µM each time.
With `CN(Cc1ccc(OCCCNc2cccc3c2C(=O)N(C2CCC(=O)NC2=O)C3=O)nc1)C[C@H]1CC[C@H](n2cc(NC(=O)c3cnn4ccc(N5CCOCC5)nc34)c(C(F)F)n2)CC1` (some centres unmarked) [I-477, N-(3-(difluoromethyl)-1-((1r,4r)-4-((((6-(3-((2-(2,6-dioxopiperidin-3-yl)-1,3-dioxoisoindolin-4-yl)amino)propoxy)pyridin-3-yl)methyl)(methyl)amino)methyl)cyclohexyl)-1H-pyrazol-4-yl)-5-morpholinopyrazolo[1,5-a] pyrimidine-3-carboxamide], the IC50 in test [2] fell in the range of 0.5 to 1 µM. Further, the DC50 in test [3] (setting [5]) and in test [3] (setting [6]) was 0.01 to 0.1 µM throughout.
Regarding `CN(CC1CCC(n2cc(NC(=O)c3cnn4ccc(C5CCOCC5)nc34)c(C(F)F)n2)CC1)[C@H]1CC[C@H](Nc2cccc3c2C(=O)N(C2CCC(=O)NC2=O)C3=O)CC1` (some centres unmarked) [I-478], the IC50 in test [2] was over 1 µM. Moreover, the values for the DC50 in test [3] (setting [5]) and in test [3] (setting [6]) were 0.1 to 1 µM and 0.01 to 0.1 µM, respectively.
Regarding `O=C1CCC(N2C(=O)c3cccc(NCC4CCN(Cc5ccc(-n6cc(NC(=O)c7cnn8ccc(N9C[C@H]%10C[C@@H]9CO%10)nc78)c(C(F)F)n6)cc5)CC4)c3C2=O)C(=O)N1` (some centres unmarked) [I-489], the IC50 in test [2] was under 0.05 µM. Besides, the DC50 in test [3] (setting [5]) was 0.1 to 1 µM; in test [3] (setting [6]), over 1 µM.
As for `CN(CC1(CNc2cccc3c2C(=O)N(C2CCC(=O)NC2=O)C3=O)CCC1)C[C@H]1CC[C@H](n2cc(NC(=O)c3cnn4ccc(N5C[C@H]6C[C@@H]5CO6)nc34)c(C(F)F)n2)CC1` (some centres unmarked) [I-491], the IC50 in test [2] was over 1 µM. The DC50 is 0.1 to 1 µM in test [3] (setting [5]) and over 1 µM in test [3] (setting [6]).
Take `CN(CCN1CCO[C@@H](CNc2cccc3c2C(=O)N(C2CCC(=O)NC2=O)C3=O)C1)C[C@H]1CC[C@H](n2cc(NC(=O)c3cnn4ccc(N5C[C@H]6C[C@@H]5CO6)nc34)c(C(F)F)n2)CC1` (some centres unmarked) [I-500]: the IC50 in test [2] was in the range of 0.05 to 0.1 µM. Also, the DC50 is 0.1 to 1 µM in test [3] (setting [5]) and 0.01 to 0.1 µM in test [3] (setting [6]).
For `CN(C(=O)c1cnn2ccc(N3CCOCC3)nc12)c1cn([C@H]2CC[C@H](CN3CCC(OCCCNc4cccc5c4C(=O)N(C4CCC(=O)NC4=O)C5=O)CC3)CC2)nc1C(F)F` (some centres unmarked) [I-501], the IC50 in test [2] lay in the range of 0.05 to 0.1 µM. For the same compound, the DC50 in test [3] (setting [5]) and in test [3] (setting [6]) was over 1 µM in each case.
Consider `CN(C[C@H]1CC[C@H](n2cc(NC(=O)c3cnn4ccc(NCCC(C)(C)O)nc34)c(C(F)F)n2)CC1)[C@H]1CC[C@H](Nc2cccc3c2C(=O)N(C2CCC(=O)NC2=O)C3=O)CC1` (some centres unmarked) [I-502], for which, in test [2], the IC50 is under 0.05 µM. Besides, the DC50 in test [3] (setting [5]) and in test [3] (setting [6]) was under 0.01 µM in each case.
Regarding `CN(C(=O)c1cnn2ccc(N3CCOCC3)nc12)c1cn([C@H]2CC[C@H](CN3CCN(Cc4ccc(COc5cccc6c5CN(C5CCC(=O)NC5=O)C6=O)cc4)CC3)CC2)nc1C(F)F` (some centres unmarked) [I-503], in test [2], the IC50 is under 0.05 µM. For the same compound, the DC50 in test [3] (setting [5]) and in test [3] (setting [6]) was over 1 µM throughout.
On to `CN(CCC(C)(C)O)c1ccn2ncc(C(=O)Nc3cn([C@H]4CC[C@H](CN(C)[C@H]5CC[C@H](Nc6cccc7c6C(=O)N(C6CCC(=O)NC6=O)C7=O)CC5)CC4)nc3C(F)F)c2n1` (some centres unmarked) [I-504], for which the IC50 in test [2] was 0.1 to 0.5 µM. In addition, the DC50 was over 1 µM in test [3] (setting [5]) and 0.01 to 0.1 µM in test [3] (setting [6]).
In the case of `O=C1CCC(N2C(=O)c3cccc(N[C@H]4C[C@H](OC5CCN(C[C@H]6CC[C@H](n7cc(NC(=O)c8cnn9ccc(N%10C[C@H]%11C[C@@H]%10CO%11)nc89)c(C(F)F)n7)CC6)CC5)C4)c3C2=O)C(=O)N1` (some centres unmarked) [I-505], the IC50 in test [2] was over 1 µM. Also, the DC50 in test [3] (setting [5]) was 0.01 to 0.1 µM; in test [3] (setting [6]) it was under 0.01 µM.
As to `O=C1CCC(N2C(=O)c3cccc(N[C@H]4C[C@H](OC5CCN(C[C@H]6CC[C@H](n7cc(NC(=O)c8cnn9ccc(N%10CCOCC%10)nc89)c(C(F)F)n7)CC6)CC5)C4)c3C2=O)C(=O)N1` (some centres unmarked) [I-506], the IC50 in test [2] is 0.5 to 1 µM. Moreover, the DC50 was 0.01 to 0.1 µM in test [3] (setting [5]) and under 0.01 µM in test [3] (setting [6]).
On to `CN(C[C@H]1OC[C@H](n2cc(NC(=O)c3cnn4ccc(N5C[C@H]6C[C@@H]5CO6)nc34)c(C(F)F)n2)CO1)C1CCN(Cc2cccc3c2n(C)c(=O)n3C2CCC(=O)NC2=O)CC1` (stereo partly drawn) [I-507, N-[3-(difluoromethyl)-1-[2-[[[1-[[1-(2,6-dioxo-3-piperidyl)-3-methyl-2-oxo-benzimidazol-4-yl]methyl]-4-piperidyl]-methyl-amino]methyl]-1,3-dioxan-5-yl]pyrazol-4-yl]-5-[(1R,4R)-2-oxa-5-azabicyclo [2.2.1]heptan-5-yl] pyrazolo[1,5-a] pyrimidine-3-carboxamide], for which, in test [1] (setting [7]), the DC50 was under 0.01 µM.
For `C[C@@H](CCNc1cccc2c1C(=O)N(C1CCC(=O)NC1=O)C2=O)OC1CCN(C[C@H]2CC[C@H](n3cc(NC(=O)c4cnn5ccc(N6C[C@H]7C[C@@H]6CO7)nc45)c(C(F)F)n3)CC2)CC1` (some centres unmarked) [I-551], the IC50 in test [2] is under 0.05 µM. The DC50 in test [3] (setting [5]) lay within 0.1 to 1 µM.
On to `O=C1CCC(N2C(=O)c3cccc(NCC4CCC5(CC4)CN(C[C@H]4CC[C@H](n6cc(NC(=O)c7cnn8ccc(N9C[C@H]%10C[C@@H]9CO%10)nc78)c(C(F)F)n6)CC4)C5)c3C2=O)C(=O)N1` (some centres unmarked) [I-552], for which the IC50 in test [2] is under 0.05 µM. Besides, the 50% degradation concentration (DC50) in test [3] (setting [5]) lay in the range of 0.1 to 1 µM.

Usually DC50 stands for the midpoint of the concentration-degradation curve. Broadly, the IC50 is the concentration needed to halve the response being measured.
